In patent US12152016B2, “Aryl hydrocarbon receptor modulators and uses thereof” (Beth Israel Deaconess Medical Center, Inc., priority 2018, dated 2024):

Test system: DSS induced colitis
Experiment: DSS induced colitis in mice
Type: in vivo, C57BL/6 mice
Method: C57BL/6 (8-10 week, male) mice were administered drinking water supplemented with 3% (wt/vol) dextran sodium sulfate (DSS; MP Biomedicals) for 7 days followed by a 13 day recovery period with unsupplemented drinking water. Compound 109 or compound 108 were suspended in vehicle (1% HPMC and 1% polysorbate 80 in water) and given daily by oral gavage (1 ug/mouse in 100 uL), starting at day 0. Control mice were administered 100 μL vehicle. Body weight and disease activity index (DAI) were recorded daily. DAI was determined by combining scores of weight loss, stool consistency, blood in stool, activity, and appearance.^1 Scores were determined as follows: change in weight (0: <1%, 1: 1-10%, 2: 10-18%, 3: 18-20%); stool consistency (0: normal, 1: loose stools, 2: diarrhea); stool blood (0: negative, 1: trace blood, 2: bloody stool, 3: gross bleeding), activity (0: normal, 1: low activity, 2: hiding, 3: no response to gentle stimuli) and appearance (0: normal, 1: rigor, 2: hunched posture). On day 7 and day 11, mice were euthanized and colon were removed for length measurement, histology, RNA isolation, and lamina propria mononuclear cell (LPMC) extraction as detailed below.
Dissected colon were cut longitudinally and rolled using the Swiss roll method with the distal side in the center.^2,3 Colons were fixed overnight in 10% neutral buffered formalin, processed for paraffin embedding and sectioned at 5 μm thickness. To visualize and quantify the inflammatory response and crypt loss, hematoxylin and eosin staining (H&E) was performed. Briefly, sections were cleared with xylene, rehydrated through alcohol gradient, stained by hematoxylin, washed by acid and ammonium alcohol, rinsed in water and exposed to Eosin followed by dehydrating through graded alcohols and cleared in xylene. All sections were mounted using Permount (Fisher Scientific) and visualized using a BX41 microscope (Olympus). For histological scoring, 3 transverse sections of Swiss roll were chosen and 9 (100×) images were captured for each section. Images were analyzed for inflammation and crypt structure and scored by a blind observer as follows: inflammation (0: rare inflammatory cells in the lamina propria; 1: increased numbers of inflammatory cells in the lamina propria; 2: confluence of inflammatory cells extending in to the submucosa; 3: transmural extension of the inflammatory infiltrate.); crypt loss (0: none; 1: basal 1/3 damaged; 2: basal 2/3 damaged; 3: only surface epithelium intact; 4: entire crypt and epithelium lost). Inflammation and crypt loss were scored separately and multiplied by a factor of 1-4 to adjust for impacted area of tissue section (1: 0-25%; 2: 25.1-50% affected; 3: 50.1-75% affected; 4: >75% affected).^1,4 To examine goblet cell number, sections were stained by a commercial periodic acid-Schiff (PAS) and Alcian blue kit (Fisher Scientific). For quantification, 3 transverse sections of Swiss roll were chosen per colon and 5 random images at 200x were taken per section in the distal region of the colon. Goblet cell number was counted per image and normalized to colon length by a blind observer using image J.^5
Colonic epithelium and lamina propria cells were isolated as previously described.^6,7 Briefly, colons were dissected and washed with HBSS to remove fecal contents. Colon were opened longitudinally and cut into 2 cm segments. […]

SMILES: N#Cc1cccc(C(=O)c2c[nH]c3ccccc23)n1 [Compound 108, 6-(1H-indole-3-carbonyl)pyridine-2-carbonitrile]
- DSS induced colitis, overall effect (3% DSS 7 days + 13 days recovery, 1 μg daily by oral gavage): attenuates DSS induced colitis
- overall disease score (3% DSS, 1 μg/day PO): improved the overall disease score
- survival (3% DSS, 1 μg/day PO): significantly improved survival
- weight loss (3% DSS, 1 μg/day PO): reduced weight loss
